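Each compound was tested at five concentrations against cells in 96-well plates for 48 hours. TGI: total growth inhibition.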

Results on 22 compounds are retold here after PubChem BioAssay (NCI).

Some test systems named below: NCI-H522 lung; MDA-MB-231 breast; HCT-15 colon; T-47D breast; A498 renal; UACC-257 melanoma; NCI-H460 lung; TK-10 renal; MOLT-4 leukemia; OVCAR-8 ovarian.
Common to all, as to assay: inhibition of tumour cell growth, NCI panel, 48 h

For the compound `COc1cc2c(cc1OC(=O)c1cc3ccccc3[nH]1)N=C[C@@H]1CCCN1C2=O`, the TGI in the assay with NCI-H522 lung is 1.19 µM; in the assay on MDA-MB-231 breast, 2.88 µM; in the assay on HCT-15 colon, above 34.2 µM; with T-47D breast it was 6.25 µM; in the assay on A498 renal, 0.599 µM; with UACC-257 melanoma, 0.691 µM. Besides, the TGI was found to be 8.65 µM with NCI-H460 lung, 13.8 µM with TK-10 renal and 0.553 µM with MOLT-4 leukemia.
For the compound `N#CCOc1cccc(C2(N3CC=CCC3)CCCCC2)c1`, the TGI with NCI-H522 lung, with MDA-MB-231 breast, with HCT-15 colon, with T-47D breast, in the assay on A498 renal and in the assay on OVCAR-8 ovarian was above 100 µM throughout. Besides, the TGI in the assay on UACC-257 melanoma, in the assay on TK-10 renal and with MOLT-4 leukemia was above 100 µM in each case.
On to `COc1ccc(-c2nnc(-c3ccncc3)o2)cc1`, for which the TGI in the assay with NCI-H522 lung, in the assay on MDA-MB-231 breast, in the assay with HCT-15 colon, in the assay on T-47D breast, in the assay on A498 renal and in the assay with OVCAR-8 ovarian was above 100 µM in each case. In addition, the TGI in the assay with UACC-257 melanoma, in the assay on TK-10 renal and with MOLT-4 leukemia was above 100 µM throughout.
Consider `COc1ccc(S(=O)(=O)Nc2ccc(-c3csc(N4C(=O)/C(=C/c5ccccc5)N=C4c4ccccc4)n3)cc2)cc1Cl`, for which the TGI with NCI-H522 lung was above 100 µM; in the assay with MDA-MB-231 breast, 46.2 µM; with HCT-15 colon, 49.5 µM; in the assay with T-47D breast it was 61.9 µM; with A498 renal, 48.7 µM; in the assay with OVCAR-8 ovarian, above 100 µM. Besides, the TGI with UACC-257 melanoma, in the assay on NCI-H460 lung, in the assay with TK-10 renal and in the assay with MOLT-4 leukemia was above 100 µM in each case.
With `C=CCCC(On1c(-c2ccc(Cl)cc2)csc1=S)c1ccccc1` (stereo not given), the TGI is 71.7 µM with NCI-H522 lung; above 100 µM in the assay with MDA-MB-231 breast; above 100 µM in the assay with HCT-15 colon; above 100 µM in the assay with T-47D breast; above 100 µM in the assay on A498 renal; above 100 µM in the assay with OVCAR-8 ovarian. Moreover, the TGI in the assay on UACC-257 melanoma, in the assay with TK-10 renal and in the assay with MOLT-4 leukemia was above 100 µM each time.
`COP(=O)(OC)c1ccc(NCc2cc(O)ccc2O)cc1`: the TGI in the assay with NCI-H522 lung was above 71.8 µM; in the assay with MDA-MB-231 breast it was above 57.8 µM; in the assay with HCT-15 colon it was 50.2 µM; in the assay on T-47D breast, 70.1 µM; with A498 renal, above 100 µM; with OVCAR-8 ovarian, above 71.2 µM. Further, the TGI is above 56.1 µM with UACC-257 melanoma, 45.4 µM in the assay with NCI-H460 lung, 53.9 µM in the assay on TK-10 renal and above 86.3 µM in the assay with MOLT-4 leukemia.
`CSC1(SC)N2Cc3ccccc3N=C2C1(c1ccccc1)c1ccccc1`: the TGI is 29.4 µM in the assay with NCI-H522 lung; above 100 µM with MDA-MB-231 breast; above 100 µM with HCT-15 colon; above 100 µM in the assay with T-47D breast; above 46.9 µM with A498 renal; above 79.6 µM in the assay on OVCAR-8 ovarian. The TGI in the assay with UACC-257 melanoma is above 90.2 µM; in the assay with NCI-H460 lung, 64.3 µM; in the assay on TK-10 renal, above 100 µM; in the assay on MOLT-4 leukemia, above 44.9 µM.
With `COc1ccc(/C=N\NC(=O)Nc2cccc3ccccc23)cc1`, the TGI in the assay on NCI-H522 lung is above 100 µM; in the assay on MDA-MB-231 breast, 44.4 µM; in the assay on HCT-15 colon, above 100 µM; with T-47D breast it was 38.2 µM; with A498 renal, 51.6 µM; in the assay with UACC-257 melanoma, above 100 µM. Besides, the TGI with NCI-H460 lung stood at 40.2 µM; in the assay on TK-10 renal, 43.9 µM.
Consider `COC(=O)c1c(O)ccc2c1c1c(n2Cc2ccccn2)C(=O)c2ccccc2C1=O`, for which the TGI is 95.6 µM with NCI-H522 lung; above 100 µM in the assay on MDA-MB-231 breast; above 100 µM in the assay with HCT-15 colon; above 100 µM in the assay with T-47D breast; above 100 µM in the assay on A498 renal; above 100 µM with OVCAR-8 ovarian. Also, the TGI in the assay with UACC-257 melanoma, in the assay on NCI-H460 lung, in the assay on TK-10 renal and with MOLT-4 leukemia was above 100 µM throughout.
With `O=c1oc2c/c(=C\c3ccccc3)c(=O)c3cccc1c3-2`, the TGI was 45.1 µM in the assay on NCI-H522 lung; 69.2 µM with MDA-MB-231 breast; above 100 µM with HCT-15 colon; 55.5 µM in the assay with T-47D breast; above 100 µM with A498 renal; 43.1 µM in the assay with OVCAR-8 ovarian. Besides, the TGI with UACC-257 melanoma, in the assay with NCI-H460 lung and in the assay on TK-10 renal was above 100 µM throughout.
With `CCCCC1(N=[N+]=[N-])C(=O)C2C=CC=C3c4ccccc4N(C1=O)C32` (stereo not given), the TGI with NCI-H522 lung is 25.1 µM; with MDA-MB-231 breast, above 31.6 µM; in the assay on HCT-15 colon, above 31.6 µM; with T-47D breast, above 31.6 µM; with A498 renal, above 10 µM; with OVCAR-8 ovarian it was above 31.6 µM. For the same compound, the TGI is 30.9 µM in the assay with UACC-257 melanoma, above 31.6 µM in the assay on NCI-H460 lung, above 31.6 µM in the assay on TK-10 renal and above 31.6 µM in the assay on MOLT-4 leukemia.
On to `COc1c(-c2cccs2)oc2c(CC(=O)O)cccc2c1=O`, for which the TGI in the assay with NCI-H522 lung, with MDA-MB-231 breast, with T-47D breast, with A498 renal, in the assay with UACC-257 melanoma and in the assay with TK-10 renal was above 100 µM in each case. Moreover, the TGI in the assay on MOLT-4 leukemia is above 100 µM.
Regarding `CNC(=O)c1ccccc1[S+]1c2cccc3cccc(c23)C(=O)N1C` (stereo not given), the TGI in the assay with NCI-H522 lung, with MDA-MB-231 breast, in the assay on HCT-15 colon, with T-47D breast, in the assay with A498 renal and in the assay with OVCAR-8 ovarian was above 100 µM throughout. The TGI with UACC-257 melanoma, with TK-10 renal and in the assay on MOLT-4 leukemia was above 100 µM in each case.
Turning to `CCCCCCCCCCCCCCCCCCOc1ccc(/C=C/C2=[N+](CCCl)CCO2)cc1`, the TGI in the assay on NCI-H522 lung, with MDA-MB-231 breast, with HCT-15 colon, with T-47D breast, with A498 renal and in the assay with OVCAR-8 ovarian was above 100 µM in each case. Moreover, the TGI in the assay with UACC-257 melanoma, in the assay on NCI-H460 lung, in the assay with TK-10 renal and in the assay with MOLT-4 leukemia was above 100 µM each time.
In the case of `NC(=O)c1ncn2c(=O)n(CCl)nnc12`, the TGI with NCI-H522 lung, with MDA-MB-231 breast, with HCT-15 colon, in the assay with T-47D breast, with A498 renal and in the assay on OVCAR-8 ovarian was above 100 µM throughout. The TGI in the assay on UACC-257 melanoma, in the assay with NCI-H460 lung, in the assay on TK-10 renal and in the assay with MOLT-4 leukemia was above 100 µM throughout.
Turning to `COc1ccc2c(c1)CC1(O)COc3cc(OC)ccc3C1O2` (stereo not given), the TGI in the assay with NCI-H522 lung, in the assay on MDA-MB-231 breast, with HCT-15 colon, in the assay with T-47D breast, in the assay with A498 renal and in the assay on OVCAR-8 ovarian was above 100 µM throughout. The TGI with UACC-257 melanoma, in the assay with TK-10 renal and with MOLT-4 leukemia was above 100 µM throughout.
In the case of `Cc1cc(C)c2c(=N)c3ccccc3n(CCCCCCn3c4ccccc4c(=N)c4c(C)cc(C)nc43)c2n1`, the TGI with NCI-H522 lung came out at 2.31 µM; with MDA-MB-231 breast it was 1.09 µM; in the assay with HCT-15 colon, 0.343 µM; in the assay on T-47D breast, 3.65 µM; in the assay with A498 renal, 3.12 µM; with OVCAR-8 ovarian, 3.14 µM. In addition, the TGI was determined as 3.06 µM in the assay with UACC-257 melanoma and 3.19 µM in the assay on TK-10 renal.
`CC(=O)NC(C)c1ccc(N=NN2CCCC2)cc1` (stereo not given): the TGI in the assay on NCI-H522 lung, in the assay with MDA-MB-231 breast, with HCT-15 colon, in the assay on T-47D breast, in the assay with A498 renal and in the assay with OVCAR-8 ovarian was above 100 µM in each case. For the same compound, the TGI in the assay on UACC-257 melanoma and with TK-10 renal was above 100 µM throughout.
Consider `COc1ccc(N2C(N)=C(C#N)C(C#N)(C#N)C2c2cccc([N+](=O)[O-])c2)cc1` (stereo not given), for which the TGI with NCI-H522 lung was found to be 20.7 µM; in the assay with MDA-MB-231 breast, 29.1 µM; with HCT-15 colon it was 30.3 µM; with T-47D breast, 28 µM; in the assay on A498 renal, 29.9 µM; in the assay with OVCAR-8 ovarian, 32.8 µM. Besides, the TGI amounted to 27.6 µM in the assay on UACC-257 melanoma, 30.9 µM in the assay on TK-10 renal and 25.7 µM in the assay with MOLT-4 leukemia.
Regarding `O=C(O)CN(CC(=O)O)Cc1ccn(-c2cccc(-n3ccc(CN(CC(=O)O)CC(=O)O)n3)n2)n1`, the TGI with NCI-H522 lung, in the assay with MDA-MB-231 breast, in the assay with HCT-15 colon, in the assay on T-47D breast, with OVCAR-8 ovarian and in the assay with UACC-257 melanoma was above 100 µM throughout. Besides, the TGI in the assay with NCI-H460 lung, with TK-10 renal and in the assay with MOLT-4 leukemia was above 100 µM in each case.
As for `C=CC[C@@H]1C=C[C@@H](C(=O)OC)n2c(=O)n(-c3ccccc3)c(=O)n21`, the TGI with NCI-H522 lung, with MDA-MB-231 breast, in the assay on HCT-15 colon, with T-47D breast, in the assay on A498 renal and in the assay on OVCAR-8 ovarian was above 100 µM throughout. Further, the TGI with UACC-257 melanoma, in the assay on TK-10 renal and in the assay with MOLT-4 leukemia was above 100 µM throughout.
On to `COc1ccc(NCc2cnc3nc(N)nc(N)c3c2C)cc1`, for which the TGI in the assay on NCI-H522 lung is above 100 µM; in the assay on MDA-MB-231 breast, 0.962 µM; in the assay with HCT-15 colon, above 100 µM; in the assay on T-47D breast it was above 92.8 µM; in the assay with A498 renal, above 100 µM; in the assay on UACC-257 melanoma, above 100 µM. Besides, the TGI in the assay with NCI-H460 lung, in the assay with TK-10 renal and in the assay on MOLT-4 leukemia was above 100 µM in each case.
